Measured values from patent US8835380B2, “Therapeutic conjugates” (University College Cardiff Consultants Limited, priority 2010, dated 2014).

Legend:
[1] = system: Acinetobacter baumannii 7789; assay: MIC broth microdilution; assay type: cell-based; conditions: amylase (100 IU/L) pre-incubation time 0
Procedure: (§1) Antimicrobial activity was measured using broth microdilution in a minimum inhibitory concentration (MIC) assay according to the Clinical and Laboratory Standards Institute (formerly NCCLS; 2003, Methods for Dilution Antimicrobial Susceptibility Tests for Bacteria That Grow Aerobically, Approved Standard—Sixth Edition. M7A6. Clinical and Laboratory Standards Institute. Wayne, Pa.). Test organisms were suspended in Mueller Hinton cation adjusted broth (100 μL, 1-5×10^4 CFU/mL) and incubated in 96-well microtitre plates in serial two-fold dilutions of the test compounds.
(§2) The antimicrobial activity of dextrin-colistin was also determined following incubation of the conjugate with amylase. Dextrin-colistin conjugates (3 mg/mL colistin eq.) were first incubated with amylase (100 IU/L for up to 48 h at 37° C. in PBS buffer (pH 8.2)).

[2] = system: Acinetobacter baumannii MDR ACB; assay: MIC broth microdilution; assay type: cell-based; conditions: amylase (100 IU/L) pre-incubation time 0
Procedure: as §1, §2

[3] = system: Acinetobacter baumannii; assay: MIC broth microdilution; assay type: cell-based; conditions: amylase (100 IU/L) pre-incubation time 0
Procedure: as §1, §2

[4] = system: Acinetobacter haemolyticus 1554; assay: MIC broth microdilution; assay type: cell-based; conditions: amylase (100 IU/L) pre-incubation time 0
Procedure: as §1, §2

[5] = system: Acinetobacter lwoffi 6056; assay: MIC broth microdilution; assay type: cell-based; conditions: amylase (100 IU/L) pre-incubation time 0
Procedure: as §1, §2

[6] = system: Acinetobacter lwoffi; assay: MIC broth microdilution; assay type: cell-based; conditions: amylase (100 IU/L) pre-incubation time 0
Procedure: as §1, §2

[7] = system: Escherichia coli 5702; assay: MIC broth microdilution; assay type: cell-based; conditions: amylase (100 IU/L) pre-incubation time 0
Procedure: as §1, §2

[8] = system: Escherichia coli 7273; assay: MIC broth microdilution; assay type: cell-based; conditions: amylase (100 IU/L) pre-incubation time 0
Procedure: as §1, §2

[9] = system: Escherichia coli AIM-1; assay: MIC broth microdilution; assay type: cell-based; conditions: amylase (100 IU/L) pre-incubation time 0
Procedure: as §1, §2

[10] = system: Klebsiella pneumoniae 5725; assay: MIC broth microdilution; assay type: cell-based; conditions: amylase (100 IU/L) pre-incubation time 0
Procedure: as §1, §2

[11] = system: Klebsiella pneumoniae IR25; assay: MIC broth microdilution; assay type: cell-based; conditions: amylase (100 IU/L) pre-incubation time 0
Procedure: as §1, §2

[12] = system: Klebsiella pneumoniae K3; assay: MIC broth microdilution; assay type: cell-based; conditions: amylase (100 IU/L) pre-incubation time 0
Procedure: as §1, §2

[13] = system: Klebsiella pneumoniae KP05 506; assay: MIC broth microdilution; assay type: cell-based; conditions: amylase (100 IU/L) pre-incubation time 0
Procedure: as §1, §2

[14] = system: Providencia stuartii IR57; assay: MIC broth microdilution; assay type: cell-based; conditions: amylase (100 IU/L) pre-incubation time 0
Procedure: as §1, §2

[15] = system: Pseudomonas aeruginosa MDR 301 PSA; assay: MIC broth microdilution; assay type: cell-based; conditions: amylase (100 IU/L) pre-incubation time 0
Procedure: as §1, §2

[16] = system: Pseudomonas aeruginosa PA01; assay: MIC broth microdilution; assay type: cell-based; conditions: amylase (100 IU/L) pre-incubation time 0
Procedure: as §1, §2

[17] = system: Pseudomonas aeruginosa R22 PSA; assay: MIC broth microdilution; assay type: cell-based; conditions: amylase (100 IU/L) pre-incubation time 0
Procedure: as §1, §2

[18] = system: Pseudomonas aeruginosa mucoid strain; assay: MIC broth microdilution (first mucoid strain, Table 3 r46); assay type: cell-based; conditions: amylase (100 IU/L) pre-incubation time 0
Procedure: as §1, §2

[19] = system: Pseudomonas aeruginosa mucoid strain; assay: MIC broth microdilution (second mucoid strain, Table 3 r49); assay type: cell-based; conditions: amylase (100 IU/L) pre-incubation time 0
Procedure: as §1, §2

[20] = target: T1, human amylase (Homo sapiens, UniProt P0DUB6); assay: Release of colistin from dextrin-colistin conjugates by amylase (FPLC); assay type: in vitro ADME; conditions: amylase 100 IU/L in PBS, 37° C., CMS: hydrolysis in PBS
T1 construct: α-amylase from human saliva; purchased Sigma-Aldrich (Poole, UK); host or cells: human saliva (natural source)
T1 sequence (P0DUB6 16-511): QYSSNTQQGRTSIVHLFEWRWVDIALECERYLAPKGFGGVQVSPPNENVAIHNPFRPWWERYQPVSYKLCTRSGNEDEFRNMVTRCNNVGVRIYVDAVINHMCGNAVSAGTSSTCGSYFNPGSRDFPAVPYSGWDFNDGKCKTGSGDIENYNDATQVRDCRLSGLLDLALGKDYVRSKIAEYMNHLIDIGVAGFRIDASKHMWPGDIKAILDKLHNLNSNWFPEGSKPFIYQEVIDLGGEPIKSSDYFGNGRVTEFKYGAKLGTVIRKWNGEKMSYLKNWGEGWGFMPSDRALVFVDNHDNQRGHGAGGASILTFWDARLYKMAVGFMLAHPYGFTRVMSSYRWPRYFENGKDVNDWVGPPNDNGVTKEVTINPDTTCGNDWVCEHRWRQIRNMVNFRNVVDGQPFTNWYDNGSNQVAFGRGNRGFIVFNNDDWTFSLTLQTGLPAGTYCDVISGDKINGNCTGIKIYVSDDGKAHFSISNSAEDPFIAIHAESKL
Procedure: To compare the rate of amylase degradation of dextrin, succinoylated dextrin and dextrin-colistin conjugates, solutions (3 mg/mL in PBS, pH 7.4) of each sample was prepared containing amylase (100 IU/L in PBS) and incubated at 37° C. for up to 48 h. At various time points, samples (300 μL) were taken, immediately snap frozen in liquid nitrogen to stop the reaction and then stored at −20° C. until analysis by GPC and FPLC (conjugates only). Prior to analysis, samples were placed in a water bath (100° C.) for 5 min to denature the enzyme activity of the amylase and stop polymer degradation. The supernatant was then analysed by GPC to determine the change in molecular weight over time and by FPLC to determine the change in free colistin over time.

[21] = system: LPS from E. coli; assay: LAL assay (endotoxin neutralisation); assay type: biochemical; conditions: 4 μg/mL
Procedure: A colorimetric assay technique was used in which the clotting reaction of Limulus amoebocyte lysate (LAL) in the presence of LPS was measured spectrophotometrically at 540 nm.
LPS was dissolved in pyrogen free water (0-50 ng/mL) containing colistin, CMS, dextrin-colistin or unmasked dextrin-colistin (4 μg/mL, 100 μL) in pyrogen-free vials. Control samples contained only LPS dissolved in pyrogen-free water. Solutions were mixed well and incubated at 37° C. for 3 h. Reconstituted LAL (100 μL) was then added and the solution mixed well before incubation at 37° C. for 45 min. Next, reconstituted substrate solution (100 μL) was added to each vial, mixed well and incubated for a further 6 min. Finally, the reaction was terminated by addition of reconstituted stop solution and colour stabilisers. Samples (100 μL) were pipetted into the wells of a 96-well microtitre plate (6 wells per sample) and absorption was read spectrophotometrically at 540 nm. The concentration of LPS producing 50% maximal absorption was taken as the ED50.
To study the effect of amylase on the activity of dextrin-colistin conjugates, dextrin-colistin conjugates (0.5 mg/mL) were first incubated with amylase (100 IU/L) for 6 and 24 h at 37° C. in PBS (pH 8.2). The endotoxin binding activity assays were then followed as described above.

[22] = system: HK2 kidney cells; assay: MTT assay, cell viability; assay type: cell-based, human; conditions: 72 h incubation
Procedure: The MTT assay was used to assess cell viability (72 h incubation) in a human kidney (HK2) cell line. Cells were seeded into sterile 96-well microtitre plates (1×10^5 cells/mL) in 0.1 mL/well of media (DMEM) containing FCS (10% v/v). They were allowed to adhere for 24 h. The medium was then removed and test compounds (0.2 μm filter-sterilized) were added to the cells. To study the effect of colistin, CMS, dextrin-colistin conjugate and succinoylated dextrin (8,000 g/mol, 1.1 mol % succinoylation) on cell viability, complete media (+FCS) was supplemented with a range of concentrations of each. To study the effect of ‘unmasked’ dextrin-colistin on cell viability, complete media (+FCS) was supplemented with a range of concentrations of conjugate and amylase (100 IU/L). After a further 67 h incubation, MTT (20 μL of a 5 mg/mL solution in PBS) was added to each well and the cells were incubated for a further 5 h. The medium was then removed and the precipitated formazan crystals solubilized by addition of optical grade DMSO (100 μL) over 30 min. Absorbance was measured at 540 nm using a microtitre plate reader. Cell viability was expressed as a percentage of the viability of untreated control cells. The IC50 values were expressed as mean±SEM (n=18).

Substance	MIC [1]	MIC [2]	MIC [3]	MIC [4]	MIC [5]	MIC [6]	MIC [7]	MIC [8]	MIC [9]	MIC [10]	MIC [11]	MIC [12]	MIC [13]	MIC [14]	MIC [15]	MIC [16]	MIC [17]	MIC [18]	MIC [19]	% colistin release after 24 h [20]	further results
colistin	0.03	0.125	0.03	4	0.03	0.25	0.03	<0.5	0.01	0.03	0.03	0.06	0.125	0.01	0.125	0.06	0.03	0.01	0.008	100%	inhibition of cleavage of chromogenic substrate by E. coli LPS [21]: able to inhibit; LPS required to trigger Limulus amoebocyte lysate gelation compared to LPS in water ([21]; preincubated 3 h at 37° C.): 20 fold; IC50 (cell viability) [22]: 20 µg/mL
colistin methanesulfonate [CMS]	2	4	4	8	2	4	1	2	0.25	1	2	2	2	1	1	1	0.5	1	0.25	23.6%	IC50 (cell viability) [22]: 25 µg/mL
